We go through 4 molecules from ChEMBL document CHEMBL1201862, “PubChem BioAssay data set” (2004).

Assay [1] addresses T1, Intestinal-type alkaline phosphatase (Homo sapiens, UniProt P09923). The assay can be described thus: human intestinal alkaline phosphatase activators, dose response, biochemical, luminescence, uHTS hits (AID 463120). Format: functional.
The target of assay [2] is T1, Intestinal-type alkaline phosphatase. Kind of assay: Dose Response confirmation of uHTS hits from a small molecule inhibitors of human intestinal alkaline phosphatase via a luminescent assay. [Related pubchem assays (depositor defined):AID2544, AID2574]. It is filed as functional.
Assay [3] has as its target T2, SUMO-activating enzyme (Homo sapiens, UniProt Q9UBT2). Kind of assay: blockers of UBC9-mediated SUMO conjugation – biochemical, AlphaScreen, SUMOylation inhibitor project, confirmation (AID 2018). Format: functional. (In general: Alpha assays give light when donor and acceptor beads are brought close together.)
The target in assay [4] is Genome polyprotein (dengue virus type 2, UniProt P29990). The assay can be described thus: flavivirus cap methylation enzyme inhibition – biochemical, confirmation dose response, primary screen (AID 588689). It is filed as functional.
Chain of Genome polyprotein (P29990 2492-3391 limits assumed): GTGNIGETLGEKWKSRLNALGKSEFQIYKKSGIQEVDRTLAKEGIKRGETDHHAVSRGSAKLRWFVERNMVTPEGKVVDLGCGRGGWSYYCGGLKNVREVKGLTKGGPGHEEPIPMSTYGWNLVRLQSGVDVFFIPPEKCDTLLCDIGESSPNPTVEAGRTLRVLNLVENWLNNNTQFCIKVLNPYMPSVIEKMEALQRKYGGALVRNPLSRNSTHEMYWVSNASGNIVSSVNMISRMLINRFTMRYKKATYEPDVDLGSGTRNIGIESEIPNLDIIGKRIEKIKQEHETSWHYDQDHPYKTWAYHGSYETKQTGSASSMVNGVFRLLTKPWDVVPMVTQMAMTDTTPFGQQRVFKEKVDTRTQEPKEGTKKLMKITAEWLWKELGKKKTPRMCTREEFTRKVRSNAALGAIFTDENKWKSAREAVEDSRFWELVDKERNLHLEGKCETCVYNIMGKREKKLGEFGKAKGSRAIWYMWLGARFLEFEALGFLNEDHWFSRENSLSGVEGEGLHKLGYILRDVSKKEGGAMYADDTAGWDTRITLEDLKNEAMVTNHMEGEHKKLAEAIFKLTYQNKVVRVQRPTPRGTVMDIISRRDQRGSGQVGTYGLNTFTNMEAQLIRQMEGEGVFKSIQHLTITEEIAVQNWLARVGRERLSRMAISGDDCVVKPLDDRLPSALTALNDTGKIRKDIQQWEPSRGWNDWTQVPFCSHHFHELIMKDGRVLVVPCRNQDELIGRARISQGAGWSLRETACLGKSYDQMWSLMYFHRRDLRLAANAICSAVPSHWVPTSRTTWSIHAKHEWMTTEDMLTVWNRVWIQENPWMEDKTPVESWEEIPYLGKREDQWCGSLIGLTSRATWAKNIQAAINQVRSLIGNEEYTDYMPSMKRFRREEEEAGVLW
The target of assay [5] is T3, Replicative DNA helicase DnaB (Mycobacterium tuberculosis, UniProt P9WMR3).
T3 sequence (P9WMR3 whole entry): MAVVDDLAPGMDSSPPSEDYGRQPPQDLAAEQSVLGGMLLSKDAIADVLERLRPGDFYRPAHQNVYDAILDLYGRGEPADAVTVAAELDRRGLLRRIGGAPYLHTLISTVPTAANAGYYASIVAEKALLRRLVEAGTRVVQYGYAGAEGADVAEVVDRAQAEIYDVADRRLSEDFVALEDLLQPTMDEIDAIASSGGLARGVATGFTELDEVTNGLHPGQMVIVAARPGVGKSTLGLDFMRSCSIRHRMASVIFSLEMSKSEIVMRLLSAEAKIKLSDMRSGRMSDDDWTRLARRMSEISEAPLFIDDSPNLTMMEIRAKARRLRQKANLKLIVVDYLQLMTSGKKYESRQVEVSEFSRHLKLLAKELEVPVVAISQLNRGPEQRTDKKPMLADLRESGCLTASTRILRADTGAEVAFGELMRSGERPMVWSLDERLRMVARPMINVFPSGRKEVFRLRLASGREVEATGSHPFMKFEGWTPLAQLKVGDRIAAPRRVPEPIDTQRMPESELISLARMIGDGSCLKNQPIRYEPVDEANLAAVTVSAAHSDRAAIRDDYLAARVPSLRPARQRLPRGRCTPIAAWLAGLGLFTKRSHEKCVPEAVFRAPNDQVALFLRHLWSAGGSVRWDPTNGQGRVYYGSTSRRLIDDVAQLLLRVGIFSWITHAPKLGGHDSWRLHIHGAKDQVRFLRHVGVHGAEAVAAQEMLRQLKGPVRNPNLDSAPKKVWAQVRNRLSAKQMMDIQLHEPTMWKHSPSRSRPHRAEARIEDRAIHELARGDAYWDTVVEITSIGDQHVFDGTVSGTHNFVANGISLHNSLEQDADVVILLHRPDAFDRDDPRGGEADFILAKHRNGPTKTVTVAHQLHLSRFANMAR
The assay can be described thus: DnaB intein splicing inhibitors, dose response, biochemical, cell-free fluorescence (AID 449749). Format: functional.

Assay [6] addresses T4, Protein RecA (Mycobacterium tuberculosis, UniProt P9WHJ3).
T4 sequence (P9WHJ3 whole entry): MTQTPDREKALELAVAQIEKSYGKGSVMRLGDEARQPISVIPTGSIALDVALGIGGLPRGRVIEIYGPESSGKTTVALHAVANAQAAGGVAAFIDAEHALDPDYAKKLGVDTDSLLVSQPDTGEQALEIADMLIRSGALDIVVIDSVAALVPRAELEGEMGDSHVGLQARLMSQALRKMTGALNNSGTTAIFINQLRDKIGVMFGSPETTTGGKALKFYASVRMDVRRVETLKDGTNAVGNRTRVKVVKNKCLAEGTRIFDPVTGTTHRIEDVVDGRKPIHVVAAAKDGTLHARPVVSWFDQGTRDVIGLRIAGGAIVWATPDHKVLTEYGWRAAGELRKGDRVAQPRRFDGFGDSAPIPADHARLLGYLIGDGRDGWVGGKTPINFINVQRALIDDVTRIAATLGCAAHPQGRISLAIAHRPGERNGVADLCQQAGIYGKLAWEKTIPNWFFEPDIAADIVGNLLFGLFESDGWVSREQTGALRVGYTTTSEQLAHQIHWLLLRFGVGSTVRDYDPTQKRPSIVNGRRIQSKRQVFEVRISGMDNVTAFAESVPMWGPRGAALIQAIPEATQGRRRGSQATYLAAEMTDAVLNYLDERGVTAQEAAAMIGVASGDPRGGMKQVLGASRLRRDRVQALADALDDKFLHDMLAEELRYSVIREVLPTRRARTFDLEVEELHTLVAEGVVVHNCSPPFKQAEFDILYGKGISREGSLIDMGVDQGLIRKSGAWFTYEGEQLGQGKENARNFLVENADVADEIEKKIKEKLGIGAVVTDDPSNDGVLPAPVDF
The assay can be described thus: Fluorescence Cell-Free Homogeneous Dose Retest to Identify Inhibitors of RecA-Intein Splicing Activity. [Related pubchem assays (depositor defined):AID2097, AID2223, AID489010, AID492950]. Format: functional.

In assay [7] the target is T2, SUMO-activating enzyme. The assay can be described thus: blockers of SAE1/SAE2–UBC9 SUMO transfer – biochemical, HTRF, uHTS, primary screen (AID 2006). It is filed as protein-complex assay.
The target in assay [8] is T5, G-protein coupled receptor 55 (Homo sapiens, UniProt Q9Y2T6). The assay can be described thus: inhibition of LPI-stimulated GPR55 beta-arrestin translocation – imaging, U2OS, beta-arrestin-GFP, LPI agonist, primary screen (AID 2013).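 Also: antagonist potency measured as reduced agonist-driven arrestin aggregation.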 It is filed as functional.
T5 sequence (Q9Y2T6 whole entry): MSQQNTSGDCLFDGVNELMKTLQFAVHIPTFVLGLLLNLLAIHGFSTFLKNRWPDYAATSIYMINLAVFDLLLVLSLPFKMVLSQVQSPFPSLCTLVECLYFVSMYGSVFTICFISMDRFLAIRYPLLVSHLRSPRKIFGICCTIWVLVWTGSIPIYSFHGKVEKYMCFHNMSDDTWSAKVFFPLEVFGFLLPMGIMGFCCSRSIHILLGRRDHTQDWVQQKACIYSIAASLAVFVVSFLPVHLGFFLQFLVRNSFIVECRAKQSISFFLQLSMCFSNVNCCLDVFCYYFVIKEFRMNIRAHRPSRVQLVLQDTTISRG
Assay [9] addresses T5, G-protein coupled receptor 55. The assay can be described thus: blockade of LPI-induced GPR55 arrestin translocation – imaging, U2OS, beta-arrestin-GFP, LPI agonist, set 2, SAR follow-up (AID 2820). It is filed as functional.
For assay [10], the target named is T6, Cannabinoid receptor 2 (Homo sapiens, UniProt P34972). The assay can be described thus: SAR analysis of antagonists of the Cannabinoid Receptor 2 using an Image-Based Assay. [Related pubchem assays (depositor defined):AID2013, AID2026]. Format: functional.
T6 sequence (P34972 whole entry): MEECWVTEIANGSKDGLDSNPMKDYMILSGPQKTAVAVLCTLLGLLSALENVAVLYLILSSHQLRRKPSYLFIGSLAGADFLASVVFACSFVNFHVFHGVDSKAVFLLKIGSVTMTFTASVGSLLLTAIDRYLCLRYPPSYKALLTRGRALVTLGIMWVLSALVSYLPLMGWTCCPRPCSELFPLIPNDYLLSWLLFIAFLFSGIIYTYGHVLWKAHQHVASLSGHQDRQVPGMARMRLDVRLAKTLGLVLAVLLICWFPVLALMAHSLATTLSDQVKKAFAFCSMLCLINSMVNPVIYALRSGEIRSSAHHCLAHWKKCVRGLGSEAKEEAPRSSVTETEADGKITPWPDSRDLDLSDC
Assay [11] addresses T7, Cannabinoid receptor 1 (Homo sapiens, UniProt P21554). Kind of assay: SAR analysis of antagonists of the Cannabinoid Receptor 1 using an Image-Based Assay - Set 2. [Related pubchem assays (depositor defined):AID2013, AID2026]. Format: functional.
The target in assay [12] is T6, Cannabinoid receptor 2. Kind of assay: SAR analysis of agonists of the Cannabinoid Receptor 2 using an Image-Based Assay. [Related pubchem assays (depositor defined):AID2013, AID2026]. Format: functional.
Assay [13] deals with T8, G-protein coupled receptor 35 (Homo sapiens, UniProt Q9HC97). The assay can be described thus: SAR analysis of Agonists of the GPR35 Receptor using an Image-Based Assay - Set 2. [Related pubchem assays (depositor defined):AID2013, AID2026]. Format: functional.
T8 sequence (Q9HC97 whole entry): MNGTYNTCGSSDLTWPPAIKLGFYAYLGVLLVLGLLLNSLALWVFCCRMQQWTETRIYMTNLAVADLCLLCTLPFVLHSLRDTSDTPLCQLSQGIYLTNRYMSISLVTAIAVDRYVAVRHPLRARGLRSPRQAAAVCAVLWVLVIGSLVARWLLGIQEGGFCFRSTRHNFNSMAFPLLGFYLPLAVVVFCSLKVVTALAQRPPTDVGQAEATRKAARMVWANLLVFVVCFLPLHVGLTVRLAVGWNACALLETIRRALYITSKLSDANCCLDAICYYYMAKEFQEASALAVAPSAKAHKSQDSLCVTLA
Assay [14] deals with T7, Cannabinoid receptor 1. Kind of assay: SAR analysis of agonists of the Cannabinoid Receptor 1 using an Image-Based Assay - Set 2. [Related pubchem assays (depositor defined):AID2013, AID2026]. Format: functional.
The target in assay [15] is T8, G-protein coupled receptor 35. Kind of assay: SAR analysis of Antagonists of the GPR35 Receptor using an Image-Based Assay - Set 3. [Related pubchem assays (depositor defined):AID2013, AID2026]. Format: functional.
Assay [16] has as its target T9, Alkaline phosphatase, tissue-nonspecific isozyme (Homo sapiens, UniProt P05186).
T9 sequence (P05186 whole entry): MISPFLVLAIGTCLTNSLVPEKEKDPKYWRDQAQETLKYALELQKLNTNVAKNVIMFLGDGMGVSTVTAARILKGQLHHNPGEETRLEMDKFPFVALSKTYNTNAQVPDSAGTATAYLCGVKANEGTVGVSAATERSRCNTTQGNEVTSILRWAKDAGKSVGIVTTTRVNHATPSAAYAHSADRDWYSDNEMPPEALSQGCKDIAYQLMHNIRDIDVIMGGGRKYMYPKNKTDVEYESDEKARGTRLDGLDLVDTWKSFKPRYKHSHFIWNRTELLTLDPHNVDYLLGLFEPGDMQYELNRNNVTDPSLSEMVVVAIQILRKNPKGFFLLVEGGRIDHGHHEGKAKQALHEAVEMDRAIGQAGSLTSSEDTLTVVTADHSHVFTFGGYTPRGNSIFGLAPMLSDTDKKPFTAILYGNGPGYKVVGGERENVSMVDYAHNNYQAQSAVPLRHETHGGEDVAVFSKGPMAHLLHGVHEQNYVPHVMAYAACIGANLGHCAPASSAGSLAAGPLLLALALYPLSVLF
The assay can be described thus: TNAP enzyme inhibition by screening hits, dose response, selectivity assay for mouse IAP inhibitor project, biochemical, human TNAP, uHTS hits (AID 488906). Format: functional.

In assay [17] the target is T1, Intestinal-type alkaline phosphatase. Kind of assay: inhibition of human intestinal alkaline phosphatase – biochemical, dose response (AID 488876). Format: functional.
Assay [18] has as its target Intestinal-type alkaline phosphatase (Mus musculus, UniProt P24822). The assay can be described thus: PubChem AID 488785. It is filed as functional.

Structures are written as SMILES. Active and inactive are the calls of the source. A value given as a limit tells only on which side of the number the result lay.

T1 sequence (P09923 whole entry): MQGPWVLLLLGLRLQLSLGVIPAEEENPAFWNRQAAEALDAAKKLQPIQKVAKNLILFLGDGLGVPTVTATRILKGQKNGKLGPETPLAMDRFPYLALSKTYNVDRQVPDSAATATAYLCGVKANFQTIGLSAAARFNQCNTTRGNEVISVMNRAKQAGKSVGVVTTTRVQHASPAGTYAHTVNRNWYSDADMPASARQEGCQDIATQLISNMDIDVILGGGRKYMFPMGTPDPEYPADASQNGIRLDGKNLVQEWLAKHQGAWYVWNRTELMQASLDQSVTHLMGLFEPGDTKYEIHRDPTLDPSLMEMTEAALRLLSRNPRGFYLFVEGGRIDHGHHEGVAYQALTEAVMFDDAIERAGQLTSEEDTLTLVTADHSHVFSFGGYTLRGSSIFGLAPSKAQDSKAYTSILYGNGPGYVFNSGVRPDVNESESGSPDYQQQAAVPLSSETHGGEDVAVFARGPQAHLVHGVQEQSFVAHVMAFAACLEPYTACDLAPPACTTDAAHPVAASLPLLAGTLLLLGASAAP
T2 sequence (Q9UBE0 whole entry): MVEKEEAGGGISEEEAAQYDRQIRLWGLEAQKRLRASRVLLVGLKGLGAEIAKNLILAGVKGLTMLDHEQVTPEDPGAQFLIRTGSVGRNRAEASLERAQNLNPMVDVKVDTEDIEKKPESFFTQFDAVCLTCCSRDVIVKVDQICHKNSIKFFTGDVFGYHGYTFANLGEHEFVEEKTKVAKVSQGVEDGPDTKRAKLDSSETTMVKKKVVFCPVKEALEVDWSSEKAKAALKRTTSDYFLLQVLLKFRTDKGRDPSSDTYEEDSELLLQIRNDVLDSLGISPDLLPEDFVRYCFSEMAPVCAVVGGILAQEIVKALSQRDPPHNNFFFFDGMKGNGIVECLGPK
T2 sequence (Q9UBT2 whole entry): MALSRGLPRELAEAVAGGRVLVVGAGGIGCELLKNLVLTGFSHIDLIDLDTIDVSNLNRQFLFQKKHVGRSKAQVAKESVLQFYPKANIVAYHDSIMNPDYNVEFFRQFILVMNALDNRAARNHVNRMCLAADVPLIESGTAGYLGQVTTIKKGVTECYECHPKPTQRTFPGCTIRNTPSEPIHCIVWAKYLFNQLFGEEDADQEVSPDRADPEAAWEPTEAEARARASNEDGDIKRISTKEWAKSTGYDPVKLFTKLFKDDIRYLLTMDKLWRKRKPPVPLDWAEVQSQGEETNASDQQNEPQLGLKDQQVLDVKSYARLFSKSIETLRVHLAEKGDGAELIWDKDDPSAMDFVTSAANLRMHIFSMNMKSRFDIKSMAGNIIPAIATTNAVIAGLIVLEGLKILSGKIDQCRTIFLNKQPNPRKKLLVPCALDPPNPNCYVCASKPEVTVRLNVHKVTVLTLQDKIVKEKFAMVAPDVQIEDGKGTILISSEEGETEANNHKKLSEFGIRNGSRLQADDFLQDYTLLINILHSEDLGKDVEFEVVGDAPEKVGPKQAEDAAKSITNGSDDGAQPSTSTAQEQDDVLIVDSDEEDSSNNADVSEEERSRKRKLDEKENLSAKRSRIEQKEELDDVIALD
T7 sequence (P21554 whole entry): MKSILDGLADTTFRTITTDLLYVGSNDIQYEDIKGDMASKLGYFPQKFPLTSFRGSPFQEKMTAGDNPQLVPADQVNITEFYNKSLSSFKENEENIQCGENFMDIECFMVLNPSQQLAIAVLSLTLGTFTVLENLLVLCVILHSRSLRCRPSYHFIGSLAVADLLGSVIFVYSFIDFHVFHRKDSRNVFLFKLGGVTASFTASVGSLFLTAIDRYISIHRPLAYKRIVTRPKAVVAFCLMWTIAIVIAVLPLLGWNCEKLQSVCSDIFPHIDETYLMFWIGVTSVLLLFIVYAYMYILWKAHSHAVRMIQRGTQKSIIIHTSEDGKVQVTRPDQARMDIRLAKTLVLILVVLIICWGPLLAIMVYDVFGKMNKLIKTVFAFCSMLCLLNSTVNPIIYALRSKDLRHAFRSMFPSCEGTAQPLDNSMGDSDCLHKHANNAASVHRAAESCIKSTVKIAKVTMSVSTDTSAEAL
Chain of Intestinal-type alkaline phosphatase (Mus musculus, UniProt P24822) (P24822 whole entry): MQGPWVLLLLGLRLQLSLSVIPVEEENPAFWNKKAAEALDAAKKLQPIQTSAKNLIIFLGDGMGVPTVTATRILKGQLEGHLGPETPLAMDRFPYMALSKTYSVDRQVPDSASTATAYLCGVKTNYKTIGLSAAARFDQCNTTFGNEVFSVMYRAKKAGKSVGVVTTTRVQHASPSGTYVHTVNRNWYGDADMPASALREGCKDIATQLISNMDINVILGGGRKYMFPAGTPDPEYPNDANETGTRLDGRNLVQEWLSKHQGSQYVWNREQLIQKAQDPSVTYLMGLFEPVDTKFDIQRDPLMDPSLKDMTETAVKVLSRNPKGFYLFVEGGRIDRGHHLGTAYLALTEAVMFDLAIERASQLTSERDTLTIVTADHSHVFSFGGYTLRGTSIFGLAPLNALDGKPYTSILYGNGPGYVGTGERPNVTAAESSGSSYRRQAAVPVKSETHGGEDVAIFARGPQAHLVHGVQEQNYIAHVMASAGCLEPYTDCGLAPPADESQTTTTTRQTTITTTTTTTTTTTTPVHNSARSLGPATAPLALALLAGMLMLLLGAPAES

Regarding `CN1CCN(CCNC(=O)Cn2c(=O)c3cccn3c3ccc(F)cc32)CC1`, in assay [1], the EC50 (usually the concentration needed to bring the measured effect to its halfway point) was > 100 µM (inactive). The IC50 (in general, the concentration at which inhibition is half-maximal) in assay [2] was > 100 µM (inactive).
`COc1cc(/C=C2\C(=O)N(c3ccc(S(N)(=O)=O)cc3)N=C2C)ccc1OC(=O)c1ccco1`: the IC50 was 6.36 µM (active) in [3], 73.2 µM (active) in assay [4] and > 100 µM (inactive) in assay [7]. Further, the AC50 (as a rule, the midpoint of the concentration-response curve, whichever way the signal moves) in assay [5] was > 380 µM (inactive). The EC50 in assay [6] is 23.8 µM (active).
For `Cc1ccc2c(c1)C(c1ccc(O)cc1)(c1ccc(O)cc1)C(=O)N2C`, the IC50 in assay [8] was 1.57 µM (active); in assay [9] it was 1 µM (active); in assay [10] it was > 32 µM (inactive); in [11], 5.74 µM (active); in assay [15], > 32 µM (inactive). Moreover, the EC50 in [12], in assay [13] and in assay [14] was > 32 µM (inactive) in each case.
Regarding `CCOC(=O)c1ccc(N2CCN(c3ccccc3F)CC2)c(NC(=O)Nc2ccccc2)c1`, the IC50 in [16] was > 100 µM (inactive); in assay [17], > 100 µM (inactive); in assay [18], 8.66 µM (active).
